This is an account of results in ChEMBL document CHEMBL1128585, “Synthesis and antiviral activity of 6-benzyl analogs of 1-[(2-hydroxyethoxy)methyl]-6-(phenylthio)thymine (HEPT) as potent and selective anti-HIV-1 agents” (J Med Chem, 1995).

The test system of test [1] is MT4. Kind of test: Cytotoxic concentration required to reduce the viability of mock-infected MT-4 cells by 50%. Format: functional. Particulars: Homo sapiens.
The nature of test [2]: Effective concentration required to achieve 50% protection of MT-4 cells against the cytopathic effect of HIV-1 virus. The test is classed as functional, cell-based. Particulars: Human immunodeficiency virus 1, MT4.
Test [3] has as its system MT4. Kind of test: The cytotoxic concentration of compound required to reduce the viability of mock-infected MT-4 cells by 50% on HIV-1 virus LAV-2ROD strain. Format: functional. To be noted: Homo sapiens.
The species entered for test [4] is Mus musculus. Nature of the test: Reduced GM-CSF dependent colony formation in murine bone marrow progenitor cells at 0.5 uM. The test is classed as functional.
Test [5] concerns MT4. Nature of the test: The effective concentration required to achieve 50% protection of MT-4 cells against the cytopathic effect of HIV-2 virus LAV-2ROD. Format: functional, cell-based. To be noted: Homo sapiens. In general terms: Damage to the host cells serves as the signal in cytopathic effect assays.
The species named for test [6] is Homo sapiens. Nature of the test: The cytotoxic concentration of compound required to reduce the viability of mock-infected PBL cells by 50% on HIV-1 virus HTLV-IIIB strain. Format: functional.
The species named for test [7] is Mus musculus. Nature of the test: Reduced GM-CSF dependent colony formation in murine bone marrow progenitor cells at 5 uM. The test is classed as functional.
For test [8], the species on record is Mus musculus. Nature of the test: Reduced IL-3 dependent colony formation in murine bone marrow progenitor cells at 50 uM. Format: functional.
Test [9] is filed under the species Mus musculus. Nature of the test: Reduced GM-CSF dependent colony formation in murine bone marrow progenitor cells at 0.05 uM. Format: functional.
For test [10], the species on record is Mus musculus. Nature of the test: Reduced GM-CSF dependent colony formation in murine bone marrow progenitor cells at 50 uM. The test is classed as functional.
For test [11], the species on record is Mus musculus. Kind of test: Reduced IL-3 dependent colony formation in murine bone marrow progenitor cells at 5 uM. Format: functional.
The species named for test [12] is Mus musculus. Nature of the test: Reduced IL-3 dependent colony formation in murine bone marrow progenitor cells at 0.5 uM. The test is classed as functional.
Test [13] is filed under the species Mus musculus. Nature of the test: Reduced IL-3 dependent colony formation in murine bone marrow progenitor cells at 0.05 uM. The test is classed as functional.
Test [14] has as its system MT4. Nature of the test: The cytotoxic concentration of compound required to reduce the viability of mock-infected MT-4 cells by 50% on HIV-1 virus A012D strain. Format: functional. Particulars: Homo sapiens.
The species named for test [15] is Homo sapiens. Nature of the test: The effective concentration required to achieve 50% protection of human peripheral blood lymphocytes against the cytopathic effect of HIV-1 virus HTLV-IIIB strain. The test is classed as functional, organism-based.
The test system of test [16] is MT4. Nature of the test: The effective concentration required to achieve 50% protection of MT-4 cells against the cytopathic effect of HIV-1 virus A012D strain. Format: functional, cell-based. Particulars: Homo sapiens.
Test [17] is filed under the species Mus musculus. Kind of test: Reduced GM-CSF dependent colony formation in murine bone marrow progenitor cells at 5uM. Format: functional.
For test [18], the species on record is Mus musculus. Nature of the test: Reduced IL-3 dependent colony formation in murine bone marrow progenitor cells at 5uM. The test is classed as functional.

The term CC50 denotes the concentration at which the toxic effect on the cells reaches its halfway point. High values mean better tolerance by the cells, low ones harm at low concentration. The term EC50 denotes the midpoint of the concentration-response curve. A low value points to a more potent agent.

Where only a bound is given, the exact number is not on record here.

`Cc1c(CCc2ccccc2)n(COCCO)c(=O)[nH]c1=O`: the midpoint of cytotoxicity in the test on MT4 [1], the CC50, lay at 444 µM. The same compound displayed an EC50 in [2] of more than 444 µM.
Take `CCOCn1c(Cc2cc(C)cc(C)c2)c(CC)c(=O)[nH]c1=O`: the CC50 in the test on MT4 [1] was 207 µM. For the same compound, the response in [2] was half-maximal at 0.0016 µM (EC50).
On to `CCOCn1c(Cc2cc(C)cc(C)c2)c(C(C)C)c(=O)[nH]c1=O`, for which the midpoint of cytotoxicity in the test with MT4 [1], the CC50, lay at 43 µM. In test [2], this compound returned an EC50 of 0.0006 µM.
The matching figures for `CCCCn1c(Cc2ccccc2)c(CC)c(=O)[nH]c1=O`: more than 500 µM and 0.21 µM.
The matching figures for `COCCn1c(Cc2ccccc2)c(C(C)C)c(=O)[nH]c1=O`: 195 µM and 0.052 µM.
Compound `Cc1c(Cc2ccccc2)n(COCCO)c(=O)[nH]c1=O` yielded an EC50 in [2] of 23 µM. That is a double-digit micromolar value.
In the case of `CCc1c(Cc2ccccc2)n(CCOC)c(=O)[nH]c1=O`, the CC50 in the test with MT4 [1] worked out at 362 µM. This compound also yielded an EC50 in test [2] of 0.25 µM.
The matching figures for `CCOCn1c(Cc2ccccc2)c(CC)c(=O)[nH]c1=O`: 245 µM and 0.041 µM.
As to `CCCCn1c(Cc2ccccc2)c(C(C)C)c(=O)[nH]c1=O`, in the test with MT4 [1], it took 58 µM to reach half-maximal cytotoxicity (CC50). The same compound came in with an EC50 in test [2] of 0.042 µM.
`CC(C)c1c(Cc2ccccc2)n(COCCO)c(=O)[nH]c1=O` displayed a CC50 with MT4 [1] of 295 µM. Besides, in test [2], the EC50 stood at 0.063 µM.
In the test on MT4 [1], `Cc1cc(C)cc(Cc2c(C(C)C)c(=O)[nH]c(=O)n2COCCO)c1` gave a CC50 of 221 µM. Also, the response in test [2] was half-maximal at 0.0027 µM (EC50).
The matching figures for `Cc1c(-c2ccccc2)n(COCCO)c(=O)[nH]c1=O`: 166 µM and more than 166 µM.
The compound `CCc1c(Cc2cc(C)cc(C)c2)n(COCCO)c(=O)[nH]c1=O` displayed a 50% cytotoxic concentration (CC50) in the test with MT4 [1] of 281 µM. In [2], this compound registered an EC50 of 0.013 µM.
The compound `CCc1c(Cc2ccccc2)n(COCCO)c(=O)[nH]c1=O` yielded a CC50 with MT4 [1] of 391 µM. The compound also returned an EC50 in test [2] of 0.35 µM.
For the compound `CCOCn1c(Cc2ccccc2)c(C(C)C)c(=O)[nH]c1=O` [EMIVIRINE], the CC50 in the test on MT4 [1] came out at 186 µM; in the test on MT4 [3] it was 102 µM; in the test filed under Homo sapiens [6], 90 µM; in the test on MT4 [14], 102 µM. In addition, the Colony_count was 75 in the test listed under Mus musculus [4]; 77 in the test filed under Mus musculus [7]; 109 in the test filed under Mus musculus [8]; 89 in the test listed under Mus musculus [9]; 57 in the test listed under Mus musculus [10]; 137 in the test listed under Mus musculus [11]. For the same compound, the results for the Colony_count in the test filed under Mus musculus [12] and in the test filed under Mus musculus [13] were 137 and 136, respectively. Further, the EC50 in the test on MT4 [5] was more than 102 µM; in the test listed under Homo sapiens [15] it was 0.004 µM; with MT4 [16], 0.003 µM; in test [2] it was 0.0042 µM.
With `Cc1c(Sc2ccccc2)n(COCCO)c(=O)[nH]c1=O` [HEPT], the CC50 in the test with MT4 [1] turned out to be 740 µM. Besides, a half-maximal response in test [2] (EC50) required 7 µM.
In the case of `Cc1cn([C@H]2C[C@H](N=[N+]=[N-])[C@@H](CO)O2)c(=O)[nH]c1=O` [ZIDOVUDINE], the CC50 with MT4 [1] stood at 7.8 µM; in the test with MT4 [3] it was 7.8 µM; in the test listed under Homo sapiens [6], 12 µM; in the test with MT4 [14], 7.8 µM. The Colony_count in the test listed under Mus musculus [4] came to 70; in the test listed under Mus musculus [17] it was 47; in the test filed under Mus musculus [8] it was 10; in the test filed under Mus musculus [9] it was 85; in the test listed under Mus musculus [10], 14; in the test filed under Mus musculus [12] it was 109. Further, the values for the Colony_count in the test listed under Mus musculus [13] and in the test filed under Mus musculus [18] were 141 and 74, respectively. Moreover, the figures for the EC50 (in the test filed under Homo sapiens [15]; in the test on MT4 [16]; in test [2]) were 0.002 µM, 0.3 µM and 0.003 µM, respectively.
